Assays:
KRAS (G12V)::SOS1 = target: T1, KRAS (G12V)::SOS1 (Homo sapiens, UniProt P01116, C118S/G12V); test: KRAS::SOS1 AlphaScreen binding assay, KRAS G12V
T1 construct: KRAS (G12V) 1-169, N-terminal 6His-tag for purification, cleaved off; 6His-tag (N, cleaved yes); TEV cleavage site; made in house
Excerpt: (§1) This assay can be used to examine the potency with which compounds according to the invention binding to (mutated) KRAS inhibit the protein-protein interaction between SOS1 and (mutated) KRAS e.g., KRAS WT, KRAS G12C, KRAS G12D, KRAS G12V, KRAS G13D. […] Low IC50 values in this assay setting are indicative of strong inhibition of protein-protein interaction between SOS1 and KRAS:
(§2) These assays measure the inhibitory effect of compounds on KRAS mutant protein-protein interactions using the Alpha Screen technology by Perkin Elmer
(§3) The following (mutant) enzyme forms of KRAS and interacting proteins are used in these assays at the given concentrations: • KRAS (G12D) 1-169, N-terminal 6His-tag, C-terminal avi-tag (Xtal BioStructures, Inc.); final assay concentration 10 nM and SOS1 564-1049, N-terminal 229 GST-tag, TEV cleavage site (Viva Biotech Ltd); final assay concentration 5 nM; • KRAS (G12C) 1-169, N-terminal 6His-tag for purification, cleaved off, C-terminal avi-tag, biotinylated, mutations: C51S, C80L, C118S (in house); final assay concentration 7.5 nM and SOS1 564-1049, N-terminal 229 GST-tag, TEV cleavage site (Viva Biotech Ltd); final assay concentration 5 nM; • KRAS (G12V) 1-169, N-terminal 6His-tag for purification, cleaved off, C-terminal avi-tag, biotinylated, TEV cleavage site, mutation: C118S, GDP loaded (in house); final assay concentration 10 nM and SOS1 564-1049, N-terminal 229 GST-tag, TEV cleavage site (Viva Biotech Ltd); final assay concentration 10 nM; • KRAS (G13D) 1-169, N-terminal 6His-tag for purification, cleaved off, C-terminal avi-tag, biotinylated, TEV cleavage site, mutation: C118S, GDP loaded (in house); final assay concentration 10 nM and SOS1 564-1049, N-terminal 229 GST-tag, TEV cleavage site (Viva Biotech Ltd); final assay concentration 10 nM; • KRAS (WT) 1-169, N-terminal 6His-tag for purification, cleaved off, C-terminal avi-tag, biotinylated, TEV cleavage site, mutation: C118S, GDP loaded (in house); final assay concentration 10 nM and SOS1 564-1049, N-terminal 229 GST-tag, TEV cleavage site (Viva Biotech Ltd); final assay concentration 10 nM.
(§4) Test compounds dissolved in DMSO are dispensed onto assay plates (Proxiplate 384 PLUS, white, PerkinElmer; 6008289) using an Access Labcyte Workstation with the Labcyte Echo 55×. For the chosen highest assay concentration of 100 μM, 150 nL of compound solution are transferred from a 10 mM DMSO compound stock solution. A series of eleven fivefold dilutions per compound are transferred to the assay plate, compound dilutions are tested in duplicates. DMSO are added as backfill to a total volume of 150 nL.
(§5) The assays run on a fully automated robotic system in a darkened room below 100 Lux. To 150 nl of compound dilution 10 μl of a mix including KRAS mutant protein, SOS1 (final assay concentrations see above) and GDP nucleotide (Sigma G7127; final assay concentration 10 μM) in assay buffer (1×PBS, 0.1% BSA, 0.05% Tween 20) are added into columns 1-24.
(§6) After 30 minutes incubation time 5 μl of Alpha Screen bead mix in assay buffer are added into columns 1-23. Bead mix consists of AlphaLISA Glutathione Acceptor Beads (PerkinElmer, Cat No AL109) and AlphaScreen Streptavidin Donor Beads (PerkinElmer Cat No 6760002) in assay buffer at a final assay concentration of 10 μg/ml each.
(§7) Plates are kept at room temperature in a darkened incubator. After an additional 60 minutes incubation time the signal is measured in a PerkinElmer Envision HTS Multilabel Reader using the AlphaScreen specs from PerkinElmer.
(§8) Each plate contains up to 16 wells of a negative control depending on the dilution procedure (platewise or serial) (DMSO instead of test compound; with KRAS mutant::SOS1 GDP mix and bead mix; column 23) and 16wells of a positive control (DMSO instead of test compound; with KRAS mutant::SOS1 GDP mix w/o bead mix; column 24).
(§9) As internal control known inhibitors of KRAS mutant::SOS1 interaction can be measured on each compound plate. […]

Caco-2 assay = format: in vitro ADME; settings: human, 10 μM test compound, pH 7.4
Excerpt: The assay provides information on the potential of a compound to pass the cell membrane, on the extent of oral absorption as well as on whether the compound is actively transported by uptake and/or efflux transporters. Permeability measurements across polarized, confluent Caco-2 cell monolayers grown on permeable filter supports (Corning, catalog #3391) are used. […] The receiver and donor compartments contain 0.25% bovine serum albumine (BSA) in assay buffer. Passive diffusion and/or active transport of compounds across the monolayer is measured in both apical to basolateral (a-b) and basolateral to apical (b-a) direction. a-b permeability (PappAB) represents drug absorption from the intestine into the blood and b-a permeability (PappBA) drug secretion from the blood back into the intestine via both passive permeability as well as active transport mechanisms mediated by efflux and uptake transporters that are expressed on the Caco-2 cells. After a pre-incubation of 25-30 min at 37° C., at predefined time points (0, 30, 60 and 90 min), samples were taken from the receiver and donor compartment, respectively.
Concentrations of test compounds in samples were measured by HPLC/MS/MS, samples from the donor compartment were diluted 1:50 (v:v) with assay buffer, samples from receiver compartment were measured without dilution.
Apparent permeabilities in a-b (PappAB) and b-a (PappBA) directions are calculated according to the formula:
[formula] • Vrec [mL]: buffer volume in receiver compartment • Cdon [pmol/mL]: concentration of test compound in donor compartment at t=0 • ΔCrec: difference between concentrations of test compound in receiver compartment at start and end of incubation time • Δt: Incubation time • Vrec·ΔCrec/Δt [[…]]: Amount of compound transferred to receiver compartment per time • A [cm^2]: filter surface
Caco-2 efflux ratios (ER) are calculated as the ratio of PappBA/PappAB.

KRAS (WT)::SOS1 = target: T2, KRAS (WT)::SOS1 (Homo sapiens, UniProt P01116, C118S); test: KRAS::SOS1 AlphaScreen binding assay, KRAS WT
T2 construct: KRAS (WT) 1-169, N-terminal 6His-tag for purification, cleaved off; 6His-tag (N, cleaved yes); TEV cleavage site; made in house
T2 sequence (P01116 1-169 isoform P01116-2 C118S): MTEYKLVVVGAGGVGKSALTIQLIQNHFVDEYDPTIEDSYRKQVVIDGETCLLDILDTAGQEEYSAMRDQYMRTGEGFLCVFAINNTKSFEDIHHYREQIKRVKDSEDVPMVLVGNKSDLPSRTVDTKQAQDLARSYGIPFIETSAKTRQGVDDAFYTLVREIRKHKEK
Excerpt: as §1, §2, §3, §4, §5, §6, §7, §8, §9

T1 sequence (P01116 1-169 isoform P01116-2 G12V/C118S): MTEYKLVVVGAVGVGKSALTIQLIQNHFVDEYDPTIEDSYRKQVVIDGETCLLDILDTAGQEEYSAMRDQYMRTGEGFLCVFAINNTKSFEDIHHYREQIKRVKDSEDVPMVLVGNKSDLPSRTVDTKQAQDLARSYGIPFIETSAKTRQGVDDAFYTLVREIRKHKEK

IC50 (KRAS (G12V)::SOS1): 2 nM
Papp A→B at 90 min, 10 μM (Caco-2 assay; Caco-2, apical to basolateral (a-b) permeability, read-out: Caco PappAB): 0.2 ×10⁻⁶ cm/s
efflux ratio at 90 min, 10 μM (Caco-2 assay; Caco-2 efflux ratio PappBA/PappAB, read-out: Caco ER): 125
IC50 (KRAS (WT)::SOS1): 2 nM
SMILES: CO[C@@H]1C[C@@H]([C@H](C)Oc2cc(O[C@@H]3CNC3(C)C)nc(-c3noc4c3CCC[C@@]43CCCc4sc(N)c(C#N)c43)n2)N(C)C1 [II-30]

Source: patent US20250129095A1, “ANNULATED 2-AMINO-3-CYANO THIOPHENES AND DERIVATIVES FOR THE TREATMENT OF CANCER” (Boehringer Ingelheim Int'l GmbH Corp., priority 2021, published 2025)
